Source: US20150065421A1, “BASAL INSULIN THERAPY” (SANOFI, priority 2012, published 2015)

Tests used:
[1] = tested on: people at high risk for vascular disease with either IFG, IGT, or early type 2 diabetes; assay: ORIGIN trial: cardiovascular, mortality and cancer outcomes; type: in vivo, human
Description: The ORIGIN study was an international, multicenter, randomized, open-label (for insulin glargine versus standard care), double-blind (for omega-3 PUFA versus placebo), 2×2 factorial design study to evaluate whether patients with IGT, IFG, or early T2DM, who were at high risk for macrovascular events, could be safely treated with insulin glargine and omega-3 PUFA, and if either insulin glargine-mediated normoglycemia and/or omega-3 PUFA reduce or prevent CV morbidity and/or mortality. Patients were randomized to either receive insulin glargine treatment as a titrated regimen which targeted fasting plasma glucose (FPG) of 95 mg/dL or standard care according to current guidelines for dysglycemia accompanied by appropriate lifestyle modifications. Patients were also independently randomized to receive either ethyl esters of omega-3 PUFA or matching placebo.
Patients were to be randomly assigned to receive either insulin glargine treatment or standard care for their dysglycemia. Patients randomized to the insulin glargine group received Lantus® (insulin glargine 100 U/mL solution) once daily (QD) by subcutaneous (SC) injection in a titrated regimen targeting an FPG of […] (5.3 mmol/L). Nondiabetic patients randomized to standard care were followed for the development of diabetes, and were encouraged to continue to modify diet and physical activity levels. Blood glucose management of diabetic patients (or nondiabetic patients who developed diabetes during the study) randomized to standard care was to be performed according to current (at that time) guidelines. All patients were to be encouraged to appropriately modify their lifestyle.
ORIGIN was an international randomized factorial trial of the effect of titrated basal insulin therapy versus standard care and of omega 3 fasty acid supplements versus placebo on incident CV outcomes. Results of the omega 3 fatty acid arm are reported separately (REF). […] The HbA1c level of people with prior diabetes had to be low enough to minimize the likelihood that insulin would be needed to maintain glycemic control during follow-up if allocated to standard care. Key exclusion criteria included unwillingess or an inability to inject insulin or do capillary glucose testing, a clear indication for, or intolerance to insulin or omega 3 fatty acids, unwillingness to stop thiazolidinediones if allocated to glargine, heart failure, or coronary artery bypass surgery within the prior 4 years with no intervening CV event. The study was approved by each site's ethics committee and all participants provided written informed consent.
Participants were asked to self-administer daily subcutaneous saline injections and to check their capillary glucose levels during a 10 day run-in period. Adherent participants were then provided with lifestyle advice and randomly allocated to either insulin glargine (Lantus™) or standard approaches to glycaemic control. Participants allocated to insulin glargine who were also taking a thiazolidinedione stopped that medication at the time of randomization; otherwise the insulin glargine was added to their glycemic regimen. These participants were instructed to inject insulin glargine in the evening, starting at 2, 4 or 6 units (depending on their initial FPG) and to increase the dose at least once per week targeting a self-measured FPG level ≦5.3 mmol/l (95 mg/dl) and ≧4 mmol/l (72 mg/dl). […] If participants developed uncontrolled hyperglycemia, investigators were permitted to add rapid-acting insulin. No other glucose-lowering medication could be added or increased. FPG levels were measured in the local laboratory at every visit and the results were regularly reviewed along with the dose of insulin to ensure that insulin was being effectively trirated. People not diagnosed with diabetes by the time of the penultimate study visit down-titrated insulin glargine by 10 units per day and stopped any metformin that was prescribed.
There were 2 co-primary composite CV outcomes. […]

[2] = tested on: people with IGT, IFG, or early diabetes; assay: Double-blind pilot study HOE901/1021 (safety and feasibility); type: in vivo, human
Description: The use of exogenous insulin in an IGT, IFG, or diabetic population might confer several potential metabolic and cardiovascular benefits: • 1. The fact that it is finely titratable and durable (compared to oral antidiabetic agents) may translate into a powerful effect to delay the exposure of target tissues to toxic levels of glycemia. • 2. Insulin-mediated suppression of circulating free fatty acids (FFA) will: • reduce VLDL synthesis and improve lipoprotein patterns (i.e. lower triglycerides, and increase HDL-C); • reduce lipotoxicity at the level of the beta cell and at insulin's target tissues; • reduce obligatory oxidative metabolism in ischemic myocardium. • 3. Exogenous insulin will prevent metabolic decompensation due to stress, that is either mild and frequent (i.e. daily stresses and minor illness or injury), or severe and less common (i.e. major injury, illness, surgery, vascular events). These stress events would normally suppress endogenous insulin responses even when a pharmacologic secretagogue or sensitizer is present; exogenous, injected insulin cannot be suppressed in such a way. • 4. Nitric oxide-mediated vasodilation and endothelial function are abnormal in those with IFG, IGT, or diabetes. Additionally, markers of endothelial inflammation are increased. These abnormalities are all improved by insulin treatment. […]

[3] = glargine group, 6-7 years exposure, p=0.02 vs standard care
[4] = insulin glargine group, median follow-up 6.2 years
[5] = insulin glargine vs standard care

With “(Gly A21) Arg (B31) Arg (B32) human insulin [insulin glargine]” the “patients who developed a new angina (number)” value [1, 3] was 100 patients, the “patients who developed a new angina (percent)” value [1, 3] was 1.6% and the “incidence of the composite outcome of nonfatal MI, nonfatal stroke or CV death (first co-primary outcome)” value [1, 4] was 2.94 /100 person-years. The “incidence of the second co-primary outcome (first plus revascularization or heart failure hospitalization)” value [1, 4] was 5.53 /100 person-years, the “incidence of any cancer or cancer death, difference to standard care” value [1, 5] was “no difference” and the “mortality, difference to standard care” value [1, 5] was “no statistically significant difference”. For the same substance, the “adjusted HR, first co-primary outcome” value ([1]; insulin glargine vs standard care, 95% CI 0.88, 1.12, P=0.9) was 0.99, the “adjusted HR, second co-primary outcome” value ([1]; insulin glargine vs standard care, 95% CI 0.91, 1.10, P=0.99) was 1.00 and the “severity of hypoglycemia episodes” value ([2]; all episodes) was “mild”. The “subjects who experienced hypoglycemia” value ([2]; of 13 insulin glargine subjects, two weeks, calorie-restricted diet, titrated to FPG 80-95 mg/dL) was “Two”.
